Measurements: patent US10144729B2, “Isoxazole analogs as FXR agonists and methods of use thereof” (Enanta Pharmaceuticals, Inc., priority 2016, dated 2018)

Molecular target: human FXR (NR1H4) (Homo sapiens (Human), UniProt Q96RI1)
Test: Human FXR (NR1H4) Assay (Gal4 promoter driven luciferase reporter, CHO cells)
Assay type: cell-based
Details: for Efficacy (%): FXR reporter assay in CHO cells, efficacy normalized to CDCA set as 100%
Text: Human FXR (NR1H4) Assay Determination of a ligand mediated Gal4 promoter driven transactivation to quantify ligand binding mediated activation of FXR. […] The principle application of this reporter assay system is to quantify functional activity of human FXR. The assay utilizes non-human mammalian cells, CHO (Chinese hamster ovary) cells engineered to express human NR1H4 protein (referred to as FXR). Reporter cells also incorporate the cDNA encoding beetle luciferase which catalyzes the substrates and yields photon emission. Luminescence intensity of the reaction is quantified using a plate-reading luminometer, Envision. Reporter Cells include the luciferase reporter gene functionally linked to an FXR responsive promoter. Thus, quantifying changes in luciferase expression in the treated reporter cells provides a sensitive surrogate measure of the changes in FXR activity. […] The assay is according to the manufacturer's instructions. […] Retrieve Reporter Cells from −80° C. storage. Perform a rapid thaw of the frozen cells by transferring a 10 ml volume of 37° C. cell recovery medium into the tube of frozen cells. Recap the tube of Reporter Cells and immediately place it in a 37° C. water bath for 5-10 minutes. Retrieve the tube of Reporter Cell Suspension from the water bath. Sanitize the outside surface of the tube with a 70% alcohol swab, and then transfer it into the cell culture hood. Dispense 90 μl of cell suspension into each well of the 96-well Assay Plate. Transfer the plate into 37° C. incubator, allowing the cells adherent to the bottom of the well. Dilute compounds in Dilution Plate (DP), and administrate to cells at Assay Plate (AP). DMSO content of the samples was kept at 0.2%. Cells were incubated for additional 22 hours before luciferase activities were measured. Thirty minutes before intending to quantify FXR activity, remove Detection Substrate and Detection Buffer from the refrigerator and place them in a low-light area so that they may equilibrate to room temperature. Remove the plate's lid and discard all media contents by ejecting it into an appropriate waste container. Gently tap the inverted plate onto a clean absorbent paper towel to remove residual droplets. Cells will remain tightly adhered to well bottoms. Add 100 μl of luciferase detection reagent to each well of the assay plate. Allow the assay plate to rest at room temperature for at least 5 minutes following the addition of LDR. Set the instrument (Envision) to perform a single 5 second “plate shake” prior to reading the first assay well. Read time may be 0.5 second (500 mSec) per well.

Chain of human FXR (NR1H4) (Q96RI1 whole entry, the tested form may be a part): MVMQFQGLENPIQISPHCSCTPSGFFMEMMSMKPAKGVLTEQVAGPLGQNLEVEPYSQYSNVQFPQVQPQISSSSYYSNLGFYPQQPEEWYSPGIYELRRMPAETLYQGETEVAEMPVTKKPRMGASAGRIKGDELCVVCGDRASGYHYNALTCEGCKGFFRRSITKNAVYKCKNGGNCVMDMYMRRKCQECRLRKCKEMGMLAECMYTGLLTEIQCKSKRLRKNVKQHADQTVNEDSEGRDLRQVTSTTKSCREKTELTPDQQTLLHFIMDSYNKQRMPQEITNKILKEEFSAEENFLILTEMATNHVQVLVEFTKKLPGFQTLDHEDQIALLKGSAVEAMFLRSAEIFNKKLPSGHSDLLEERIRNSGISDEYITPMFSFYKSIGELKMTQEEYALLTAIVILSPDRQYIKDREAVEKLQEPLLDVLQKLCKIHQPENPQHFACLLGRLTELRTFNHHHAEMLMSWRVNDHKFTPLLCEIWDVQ

| Structure (SMILES) | EC50 [nM] | Efficacy (%) |
| --- | --- | --- |
| CN(C)S(=O)(=O)NC(=O)c1ccc([C@@H]2C[C@H]2c2ccc(OCc3c(-c4c(Cl)cccc4Cl)noc3C3CC3)cc2Cl)cc1 [Example 1a] | 100 to 1000 | 271 |
| O=C(NS(=O)(=O)C1CC1)c1ccc([C@@H]2C[C@H]2c2ccc(OCc3c(-c4c(Cl)cccc4Cl)noc3C3CC3)cc2Cl)cc1 [Example 2c] | 100 to 1000 | 209 |
| CC(C)(C)c1ccc(S(=O)(=O)NC(=O)c2ccc([C@@H]3C[C@H]3c3ccc(OCc4c(-c5c(Cl)cccc5Cl)noc4C4CC4)cc3Cl)cc2)cc1 [Example 2a] | 1000 to 10000 | 115 |
| CN(C)S(=O)(=O)NC(=O)Nc1ccc([C@@H]2C[C@H]2c2ccc(OCc3c(-c4c(Cl)cccc4Cl)noc3C3CC3)cc2Cl)cc1 [Example 1b] | 1000 to 10000 | 194 |
| CC(C)(C)c1ccc(S(=O)(=O)NC(=O)Nc2ccc([C@@H]3C[C@H]3c3ccc(OCc4c(-c5c(Cl)cccc5Cl)noc4C4CC4)cc3Cl)cc2)cc1 [Example 2d] | 100 to 1000 | 236 |
